Results published in PubChem BioAssay AID1996.
In brackets after ≈: the same amount, converted by molar mass.

Details: buffer; pH 7.4; 200.0 µM

Row | Compound | solubility kinetic [µg/mL]
1 | CC(C)(Cc1ccc(O)cc1)NC(=O)c1ccccc1 | 36.7 (≈ 136 µM)
2 | N#Cc1ccc(NC(=O)CN2CCCCCC2)cc1Cl | 26.4 (≈ 90.5 µM)
3 | Cl.O=C(NC1CCN(Cc2ccccc2)CC1)c1cccc(S(=O)(=O)Nc2ccc(SC(F)F)cc2)c1 | 31.7
4 | CC(=O)c1ccc(OCC(=O)Nc2ccccc2N2CCCC2)cc1 | 44.4 (≈ 131 µM)
5 | COc1cc(NC(=O)COC(=O)c2[nH]c(C)c(C(C)=O)c2C)cc(OC)c1 | 4 (≈ 10.7 µM)
6 | COC(=O)[C@H](Cc1ccccc1)NC(=O)N1CCCCCC1 | > 45.7
7 | COc1cc(C(=O)N2C[C@H]3C[C@@H](C2)c2cccc(=O)n2C3)cc(OC)c1OC | > 57.7
8 | COc1ccc(NC(=O)COc2ccccc2Cc2ccccc2)cn1 | 12.2 (≈ 35 µM)
9 | COc1ccccc1C(=O)c1c(C)c(CCC#N)n2ccccc12 | 40.6 (≈ 128 µM)
10 | CCc1ccc(OCc2cnc(Cl)s2)cc1 | < 0.5
11 | C/C=C/C=C/C(=O)OC(C)C(=O)Nc1cc([N+](=O)[O-])ccc1OC (stereo not given) | 18 (≈ 53.8 µM)
12 | Cc1ccc(S(=O)(=O)NC2CC2)s1 | > 32.6
13 | N#Cc1c(-c2ccco2)ccn(Cc2ccc(F)cc2)c1=O | 9 (≈ 30.6 µM)
14 | Cc1ccoc1C(=O)Nc1cccc2ccccc12 | 33.9 (≈ 135 µM)
15 | CCOc1ccc(C(=O)n2cc(C(=O)OC)c3ccccc32)cc1 | < 0.7
16 | CCOc1ccc2c(c1)ncn2Cc1ccccc1 | 32.4 (≈ 128 µM)
17 | Cc1snc(SCc2ccc(F)cc2)c1C#N | 3 (≈ 11.3 µM)
18 | CN(CCC#N)Cc1cc(=O)oc2ccc3ccccc3c12 | 33.5 (≈ 115 µM)
19 | O=C(NC(=S)N1CCCCCC1)c1cccc([N+](=O)[O-])c1 | > 46.1
20 | COc1cc(C#N)ccc1OCC(=O)NCCC1=CCCCC1 | 3.7 (≈ 11.8 µM)
21 | COC(=O)c1cc(C(=O)Cc2ccccc2)c[nH]1 | > 36.5
22 | N#C/C(=C/Nc1ccccc1C(=O)O)C(N)=O | > 34.7
23 | Cc1ccc(CNS(=O)(=O)c2ccc(C)s2)cc1 | > 42.2
24 | O=C(NCc1csc(-c2cccs2)n1)c1ccsc1 | 45.9 (≈ 150 µM)

Row | Compound | solubility kinetic [µg/mL]
25 | CNC(=S)N(CCCn1ccnc1)Cc1c(F)cccc1Cl | 49 (≈ 144 µM)
26 | CC(=O)NC(C)C(=O)OCC(=O)c1ccc(-c2ccccc2)cc1 (stereo not given) | 21.9 (≈ 67.3 µM)
27 | O=C(c1c[nH]c2ccccc12)N1CCN(Cc2ccccc2)CC1 | > 47.9
28 | Cc1ccc(CNC(=O)CN2C(C)CCCC2C)cc1 (stereo not given) | 28.9 (≈ 105 µM)
29 | CN(CC(=O)NC1CCCC1)S(=O)(=O)c1cccc(Cl)c1 | 7.6 (≈ 23 µM)
30 | CC1CN(c2ccc(S(=O)(=O)N3CCCC3)cn2)CC(C)O1 (stereo not given) | > 48.8
31 | Cc1ccc(C(=O)O/N=C(\N)c2ccccn2)c(C)c1 | > 40.4
32 | N#Cc1c(-c2cccnc2)cc(-c2ccccc2)nc1N | 2.4 (≈ 8.81 µM)
33 | Cc1cccc(C(=O)Nc2sc3c(c2C(=O)O)CCCC3)c1 | 6.9 (≈ 21.9 µM)
34 | CC(NS(=O)(=O)c1cc(C(F)(F)F)ccc1Cl)C(=O)N(C)C1CCN(C)CC1 (stereo not given) | > 66.3
35 | CC(C)[C@H](NS(=O)(=O)c1ccccc1F)C(=O)NC1CCCCC1 | > 53.5
36 | O=C(CCNC(=O)c1ccc([N+](=O)[O-])cc1)Oc1ccc(F)c(F)c1 | > 52.5
37 | O=C(NCc1ccccc1)NC(=O)c1ccc(Cl)cc1 | < 0.3
38 | Cc1nn(C(=O)/C(C#N)=C/N(C)C)c(C)c1C | > 34.8
39 | CC(=O)c1cccc(Nc2nc(-c3sc(N)nc3C)cs2)c1 | 4.5 (≈ 13.6 µM)
40 | CCS(=O)(=O)c1ccc(C(=O)NC)c(Cl)c1Cl | > 44.4
41 | COc1ccc(NC(=O)/C=C/c2ccc(OC)c(OC)c2)cn1 | 11.3 (≈ 35.9 µM)
42 | COc1nc2ccccc2nc1N1CCN(c2ccc(F)cc2)CC1 | < 0.2
43 | NC(=O)Cn1cc(C=C2C(=O)NC(=O)NC2=O)c2ccccc21 | 11.3 (≈ 36.2 µM)
44 | CCCCOC(=O)C1=C(C)NC(=O)NC1c1cccc([N+](=O)[O-])c1 (stereo not given) | 12.3 (≈ 36.9 µM)
45 | Cc1nc(C(N)=O)c(N)n1CCc1ccccc1 | 35.7 (≈ 146 µM)
46 | Nc1nc(CCl)nc(Nc2cccc3ccccc23)n1 | 41 (≈ 143 µM)
47 | CC1CCCN(C(=O)CSc2nnc(-c3ccncc3)n2C)C1 (stereo not given) | > 49.7
48 | O=C(Nc1ccc(N2CCCC2)cc1)c1cc2ccccc2o1 | 0.4 (≈ 1.31 µM)

Row | Compound | solubility kinetic [µg/mL]
49 | Cc1nc2cc(C)c(C)cc2s1 | 0.7 (≈ 3.95 µM)
50 | O=C(O)/C=C/C(=O)Nc1ccc(Oc2ncnc3cc(Cl)ccc23)nc1 | > 55.6
51 | Cc1cc(OCC(=O)N(C(C)C)C(C)C)ccc1Cl | 28.8 (≈ 101 µM)
52 | Cc1cc(C)c2[nH]c(C(=O)Nc3ccc4c(c3)OCO4)cc2c1 | 2.2 (≈ 7.14 µM)
53 | COc1ccc(CNC(=O)c2cc(=O)c3ccccc3o2)cc1 | 12 (≈ 38.8 µM)
54 | Fc1ccc(OCCn2cnc(Cl)c2Cl)cc1 | 29.7 (≈ 108 µM)
55 | CSc1sc(C(=O)NCC2CC2)cc1S(=O)(=O)C(C)C | 49.3 (≈ 148 µM)
56 | CCCCCCCCNc1nc(Cl)nc(NCCN2CCOCC2)n1 | 0.5 (≈ 1.35 µM)
57 | CC(=O)c1ccc(NC(=O)NCc2ccc(F)cc2)cc1 | 7.8 (≈ 27.2 µM)
58 | CC(C)(C)c1ccccc1OCC(=O)NCCCn1ccnc1 | > 47.3
59 | COC(=O)c1ccncc1C(=O)Nc1ccc(OC)cc1 | 39.4 (≈ 138 µM)
60 | COc1ccc(NC(=O)CC2C(=O)NCCN2C(=O)c2ccccc2)cc1 (stereo not given) | > 55.1
61 | COc1ccc(Cl)cc1N1C(=N)SCC1=O | > 38.5
62 | Cc1ccc(C(C)NC(=O)c2ccncc2)c(C)c1 (stereo not given) | > 38.1
63 | Cc1ccc(NC(=O)COC(=O)Cn2ccc(=O)[nH]c2=O)cc1C | > 49.7
64 | O=C(CN1C(=O)NC2(CCc3ccccc32)C1=O)NCc1ccc(Cl)cc1 (stereo not given) | > 57.6
65 | Cn1c2c(c3cc([N+](=O)[O-])ccc31)CCCC2 | < 0.2
66 | COc1ccccc1N1CC(C)(C)C(=O)N(C(=O)c2ccc(C)cc2)C1=S | 2.1 (≈ 5.49 µM)
67 | COc1ccc(NC(=O)C(=O)Nc2cccc3cccnc23)cc1OC | < 0.3
68 | CCCCOC(=O)C1=C(C)NC(=O)NC1c1ccc(N(C)C)cc1 (stereo not given) | 1.7 (≈ 5.13 µM)
69 | C=CCn1c(COc2ccccc2OC)nc2ccccc21 | 10.2 (≈ 34.7 µM)
70 | CN1CCN(CCOc2ccc(-c3ccccc3)cc2)CC1.Cl | > 49.9
71 | O=C(CCCc1cccs1)Nc1ccc2c(c1)OCO2 | 39.2 (≈ 135 µM)
72 | Cc1cc(C)c(C)c(OCCN2CCOCC2)c1 | 27.3 (≈ 109 µM)

Row | Compound | solubility kinetic [µg/mL]
73 | Cn1c(SCC(=O)NC2CCCCC2)nnc1-c1ccccc1F | > 52.3
74 | Cc1nc(-c2ccc(C(=O)NCCO)cc2)cs1 | > 39.3
75 | CNC(=O)CN1C(=O)NC(Cc2c[nH]c3ccccc23)C1=O (stereo not given) | > 45
76 | Cc1ccc(Cl)c(NC(=O)CN2CCNC(=O)C2)c1Cl | > 47.4
77 | O=C(Cc1c(Cl)cccc1Cl)Nc1ccncc1Cl | 6.1 (≈ 19.3 µM)
78 | CC(=O)c1cccc(NC(=S)NCCc2ccc(Cl)cc2)c1 | 4.1 (≈ 12.3 µM)
79 | O=C(Oc1ccc([N+](=O)[O-])cc1)C1CC(=O)N(c2ccc3c(c2)OCCO3)C1 (stereo not given) | > 57.7
80 | CCOC(=O)c1sc(Nc2ccc(Br)cc2)nc1C | 1.2 (≈ 3.52 µM)
81 | Cc1cccc2c(N=O)c(O)n(CCc3ccccc3)c12 | 0.4 (≈ 1.43 µM)
82 | CCc1noc(C)c1C(=O)Nc1ccccc1N1CCOCC1 | > 47.3
83 | COc1ccccc1OCCCCN1CCC(C)CC1 | 30.7 (≈ 111 µM)
84 | CC(C)(C)C(=O)/C=C1\NC(=O)CS1 | > 29.9
85 | COc1ccc(-n2c(SC)nc3sc4c(c3c2=O)CCN(C)C4)cc1 | 34.8 (≈ 93.2 µM)
86 | O=C(COC(=O)C1CCCC1)Nc1cccc(Cl)c1Cl | 5.9 (≈ 18.7 µM)
87 | CC(C)Cc1nc2oc3c(NCC(C)O)ncnc3c2c2c1CCCC2 (stereo not given) | 2.1 (≈ 5.92 µM)
88 | Cc1ccc(C)c(NC(=O)CC2Oc3ccccc3NC2=O)c1 (stereo not given) | 1.1 (≈ 3.54 µM)
89 | CC(C)Oc1ccc(CCN=C(N)N=C(N)N)cc1Cl.Cl | > 50.1
90 | O=C(O)/C=C/C(=O)Nc1ccc(OC(F)(F)F)cc1 | 38.8 (≈ 141 µM)
91 | O=C(COc1cc(F)ccc1[N+](=O)[O-])NCCN1C(=O)CSC1=O | > 53.6
92 | C/C(=N\NC(=O)C1CC1)c1ccc(C)c(C)c1 | > 34.5
93 | COC(=O)c1sccc1NC(=O)c1ccc(Cl)cc1 | < 0.6
94 | Cn1cc(Br)c(-c2cccc(N3C(=O)CCCC3=O)c2)n1 | > 52.2
95 | CC(=O)Nc1ccc(S(=O)(=O)Nc2ccc3nc(C)sc3c2)cc1 | 14.6 (≈ 40.4 µM)
96 | COc1cc2ccccc2cc1C(=O)N1CC(C)OC(C)C1 (stereo not given) | > 44.9

Row | Compound | solubility kinetic [µg/mL]
97 | COC(=O)c1ccn(CC(=O)NC2CCCCC2)n1 | > 39.8
98 | c1ccc(-c2ncc3ccccn23)cc1 | 19.1 (≈ 98.3 µM)
99 | CS(=O)(=O)Nc1cccc(-c2cn3c(n2)SCC3)c1 | 40 (≈ 135 µM)
100 | CCOC(=O)C1=C(C)OC(N)=C(C#N)C1c1ccccc1 (stereo not given) | 37.1 (≈ 130 µM)
101 | Cc1ccc(S(=O)(=O)CCN2CCN(c3ccccc3)CC2)cc1 | 45.7 (≈ 133 µM)
102 | O=C(NC1CC1)c1sc2cc(F)ccc2c1Cl | 9.4 (≈ 34.8 µM)
103 | O=C(COc1ccc([N+](=O)[O-])cc1)N1CCc2ccccc2C1 | 37.5 (≈ 120 µM)
104 | Cc1ccc(OCC(=O)N2CCCCCCC2)cc1 | > 39.2
105 | Cl.Fc1ccc(CNC2CN3CCC2CC3)cc1 (stereo not given) | > 46.1
106 | Cl.c1ccc(Cc2ccc(OCCN3CCOCC3)cc2)cc1 | 42.2
107 | O=C(O)C1C2C=CC(C2)C1C(=O)NCc1ccc(Cl)cc1Cl (stereo not given) | 45.3 (≈ 133 µM)
108 | CS(=O)(=O)NCCNc1ccc(C(F)(F)F)cc1[N+](=O)[O-] | 30.3 (≈ 92.6 µM)
109 | c1ccc(N2CCN(Cc3cn4ccccc4n3)CC2)cc1 | 40.8 (≈ 140 µM)
110 | CC(=O)Nc1ccc(SCC(=O)Nc2ccccc2N2CCOCC2)cc1 | 3.9 (≈ 10.1 µM)
111 | CC(C)[C@H](NS(=O)(=O)c1ccccc1F)C(=O)OCC(=O)Nc1cccc(S(N)(=O)=O)c1 | > 73.1
112 | CCc1ncc(/C=C2\C(=O)Nc3ccccc32)[nH]1 | 6.7 (≈ 28 µM)
113 | Cc1c(C(=O)N2CCOCC2)oc2ccccc12 | > 36.8
114 | CCOc1ccc(S(=O)(=O)/N=C(/c2ccccc2)N(C)C)cc1 | > 49.9
115 | C=CCNC(=O)c1cccc(NS(=O)(=O)c2ccc(Cl)cc2)c1 | 49.9 (≈ 142 µM)
116 | O=S(=O)(NC1CCSc2ccccc21)c1ccccc1 (stereo not given) | 15.6 (≈ 51.1 µM)
117 | NC(=S)Nc1c(Cl)cccc1Cl | > 33.2
118 | O=C1CCC(C(=O)OCC(=O)Nc2ccc(Cl)cc2C(F)(F)F)=NN1 | > 56.7
119 | O=C(COC(=O)CCN1C(=O)C2CC=CCC2C1=O)Nc1ccc([N+](=O)[O-])cc1 (stereo not given) | > 60.2
120 | CCn1c(/C=C/c2ccccc2Cl)nc2ccccc2c1=O | 1.7 (≈ 5.47 µM)
